Data: patent publication US9278978B2, “6-Alkynyl Pyridine” (Boehringer Ingelheim International GmbH, priority 2013, dated 2016)
Like-named read-outs stand apart in the source and are kept apart here.

Target: cIAP1 BIR3 (Homo sapiens (Human), UniProt Q13490)
Assay: cIAP1 BIR3 binding assay (DELFIA), BIR3 domain-SMAC peptide interaction
Method: XIAP BIR3 and cIAP1 BIR3 Binding Assays (DELFIA)
Peptide […]-Lys(Biotin), representing the N-terminus of mature human SMAC(SMAC peptide), was used as interaction partner in the protein-peptide interaction assay.
BIR3 domains (10 nM) were incubated with SMAC peptide (10 nM) in assay buffer (50 mM Tris, 120 mM NaCl, 0.1% BSA, 1 mM DTT, 0.05% TritonX100) for one hour at room temperature in the presence of inhibitory compounds. The assay mixture was transferred to a strepatvidin coated plate and incubated for one hour at room temperature to allow binding of the biotinylated peptide and associated BIR3 domains to the plate. After several washing steps Eu labeled anti-GST antibody (e.g. Perkin Elmer DELFIA Eu-N1-antiGST AD0250) was added to detect BIR3 domain-SMAC peptide interactions according to Perkin Elmer's instructions. […] Time resolved Europium fluorescence was measured in a Wallac Victor using Standard assay settings.
DELFIA assay results were plotted against compound concentrations and Software GraphPad Prizm was used to calculate half maximal inhibitory concentrations (IC50 values).

[1] = BIR3 domain 10 nM, SMAC peptide 10 nM, (S)-isomer (examples 1-34, 38-43) or racemate (examples 35-37), read-out: cIAP1 BIR-3 IC50

| SMILES | IC50 [1] [nM] | IC50 [nM] |
| --- | --- | --- |
| CNC(C)C(=O)Nc1cc(-c2nc(C)nc3nn(C)c(C)c23)cc(C#Cc2ccc3c(ccc(=O)n3C)c2)n1 (centres unmarked) [Example 19, N-{6-[2-(1-methyl-2-oxo-1,2-dihydroquinolin-6-yl)ethynyl]-4-{trimethyl-2H-pyrazolo[3,4-d]pyrimidin-4-yl}pyridin-2-yl}-2-(methylamino)propanamide] | 2 |  |
| CNC(C)C(=O)Nc1cc(-c2ccc(C(F)(F)F)nc2)cc(C#Cc2ccccc2)n1 (centres unmarked) [Example 30, 2-(methylamino)-N-[6-(2-phenylethynyl)-4-[6-(trifluoromethyl)pyridin-3-yl]pyridin-2-yl]propanamide] | 352 |  |
| CNC(C)C(=O)Nc1cc(-c2nc(C)nc3nn(C)c(C)c23)cc(C#Cc2ccc3c(cnn3C)c2)n1 (centres unmarked) [Example 20, N-{6-[2-(1-methyl-1H-indazol-5-yl)ethynyl]-4-{trimethyl-2H-pyrazolo[3,4-d]pyrimidin-4-yl}pyridin-2-yl}-2-(methylamino)-propanamide] | 1 |  |
| CNC(C)C(=O)Nc1cc(-c2nc(C)nc3nn(C)c(C)c23)cc(C#Cc2ccc3c(C)nccc3c2)n1 (centres unmarked) [Example 18, 2-(methylamino)-N-{6-[2-(1-methylisoquinolin-6-yl)ethynyl]-4-{trimethyl-2H-pyrazolo[3,4-d]pyrimidin-4-yl}pyridin-2-yl}-propanamide] | 1 |  |
| CNC(C)C(=O)Nc1cc(-c2ncnc3ncn(C)c23)cc(C#Cc2ccccc2)n1 (centres unmarked) [Example 7, N-[4-(7-methyl-7H-purin-6-yl)-6-(2-phenylethynyl)pyridin-2-yl]-2-(methylamino)propanamide] |  | 2 |
| CNC(C)C(=O)Nc1cc(-c2ncnc3ncn(C)c23)cc(C#Cc2ccc3c(ccc(=O)n3C)c2)n1 (centres unmarked) [Example 8, N-{6-[2-(1-methyl-2-oxo-1,2-dihydroquinolin-6-yl)ethynyl]-4-(7-methyl-7H-purin-6-yl)pyridin-2-yl}-2-(methylamino)propanamide] |  | 1 |
| CNC(C)C(=O)Nc1cc(-c2ncnc3c(C)nn(C)c23)cc(C#Cc2cnc3c(cnn3C)c2)n1 (centres unmarked) [Example 43, N-(4-{1,3-dimethyl-1H-pyrazolo[4,3-d]pyrimidin-7-yl}-6-(2-{1-methyl-1H-pyrazolo[3,4-b]pyridin-5-yl}ethynyl)pyridin-2-yl)-2-(methylamino)propanamide] | 1 |  |
| CNC(C)C(=O)Nc1cc(-c2ncnc3oc(C)c(C)c23)cc(C#Cc2ccccc2)n1 (centres unmarked) [Example 10, N-(4-{5,6-dimethylfuro[2,3-d]pyrimidin-4-yl}-6-(2-phenylethynyl)pyridin-2-yl)-2-(methylamino)propanamide] | 2 |  |
